According to ChEMBL document CHEMBL1147064 (Proc Natl Acad Sci U S A, 2007):

How the values were obtained:
[1] = molecular target: Botulinum neurotoxin type A (Clostridium botulinum, UniProt P0DPI0)
[2] = Toxicity against mouse Neuro2a cells at =>5 uM; format: cell-based; conditions: n2a

Botulinum neurotoxin type A, sequence (P0DPI0 2-448 limits assumed): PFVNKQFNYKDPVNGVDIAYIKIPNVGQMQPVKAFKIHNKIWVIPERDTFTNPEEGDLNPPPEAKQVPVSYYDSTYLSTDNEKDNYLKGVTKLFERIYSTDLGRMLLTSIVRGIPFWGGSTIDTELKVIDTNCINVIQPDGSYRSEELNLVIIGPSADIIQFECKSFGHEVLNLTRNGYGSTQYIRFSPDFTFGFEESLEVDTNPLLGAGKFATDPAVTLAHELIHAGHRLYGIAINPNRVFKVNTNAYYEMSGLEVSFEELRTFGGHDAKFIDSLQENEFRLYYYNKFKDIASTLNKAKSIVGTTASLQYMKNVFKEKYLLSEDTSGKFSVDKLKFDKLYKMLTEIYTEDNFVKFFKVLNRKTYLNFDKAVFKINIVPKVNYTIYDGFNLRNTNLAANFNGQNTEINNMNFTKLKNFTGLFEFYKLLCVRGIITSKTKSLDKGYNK

Compound | IC50 [1] [µM] | Activity [2]
COc1ccc(CCNC(=O)CN(CC(=O)N[C@H]2C[C@@H]2c2ccccc2)C(=O)Cn2c(C(=O)N[C@H]3CCCC[C@@H]3NC(=O)c3cc4ccccc4n3CC(=O)N(CC(=O)NCCc3ccc(OC)cc3)CC(=O)N[C@@H]3C[C@H]3c3ccccc3)cc3ccccc32)cc1 | 7.6 | –
CCC1CN(C(=O)/C=C/c2ccccc2)CC(=O)N1Cc1ccc(C)cc1 (stereo not drawn) | 12.5 | –
O=C(/C=C/c1ccc(Cl)cc1Cl)NO [CINNAMIC ACID HYDROXAMATE] | – | Toxic
